The target in the test is T1, XfOhr (Ohr from Xylella fastidiosa) (Xylella fastidiosa, UniProt Q9PCF4).
T1 construct: gene XF_1827

The structures appear in SMILES notation.

T1 sequence (Q9PCF4 1-143): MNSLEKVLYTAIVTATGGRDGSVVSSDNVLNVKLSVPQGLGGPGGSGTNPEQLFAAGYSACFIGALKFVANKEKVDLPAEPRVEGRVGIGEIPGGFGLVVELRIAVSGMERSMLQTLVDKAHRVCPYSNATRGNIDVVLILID

Take `NC(=O)CCCC[C@@H](S)CCS` [dihydrolipoamide]: the “lipoamide-lipoamide dehydrogenase peroxidase-coupled assay, NADH decay at 340 nm” value was “XfOhr R19A and XfOhr E51A presented only residual dihydrolipoamide-dependent peroxidase activity”.

Source of the values: publication PMC5962072, “Structural insights on the efficient catalysis of hydroperoxide reduction by Ohr: Crystallographic and molecular dynamics approaches” (PLoS ONE, 2018).
